In patent US20110190503A1, “Thiazolopyridin-2-yloxy-phenyl and thiazolopyrazin-2-yloxy-phenyl amines as modulators of leukotriene A4 hydrolase” (Janssen Pharmaceutical NV, priority 2008, published 2011):
Structures can show the parent of a compound that is named as a salt.

Key:
[1] = system: airway hyperresponsiveness; settings: primate model; cited from earlier work
[2] = system: LTB4 production by calcium ionophore-stimulated murine blood; experiment: LTB4 production by calcium ionophore-stimulated murine blood for LTA4H inhibitor activity; format: cell-based, CD-1 mice; settings: Mus musculus; murine blood diluted 1 in 15, calcium ionophore A23187, LTB4 by immunoassay; read-out: IC50
Summary of the method: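 LTB4 quantified by EIA in supernatants after murine (CD-1) heparinized whole blood was exposed to compound for 15 min, then to 7 μg/mL (final) A23187 for 30 min, all at 37° C. Reported values: single runs or means; three or more runs include SD.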

[3] = target: T1, recombinant human LTA4 hydrolase (rhLTA4H) (Homo sapiens, UniProt P09960); experiment: Recombinant human LTA4 hydrolase assay for LTA4 hydrolase inhibitor activity; format: biochemical; settings: rhLTA4H, LTA4 substrate, LTB4 by immunoassay; single determination or average; read-out: IC50
T1 construct: made in house; host or cells: Spodoptera frugiperda (Sf-9) cells, recombinant baculovirus (pFastBac1)
T1 sequence (P09960 1-611): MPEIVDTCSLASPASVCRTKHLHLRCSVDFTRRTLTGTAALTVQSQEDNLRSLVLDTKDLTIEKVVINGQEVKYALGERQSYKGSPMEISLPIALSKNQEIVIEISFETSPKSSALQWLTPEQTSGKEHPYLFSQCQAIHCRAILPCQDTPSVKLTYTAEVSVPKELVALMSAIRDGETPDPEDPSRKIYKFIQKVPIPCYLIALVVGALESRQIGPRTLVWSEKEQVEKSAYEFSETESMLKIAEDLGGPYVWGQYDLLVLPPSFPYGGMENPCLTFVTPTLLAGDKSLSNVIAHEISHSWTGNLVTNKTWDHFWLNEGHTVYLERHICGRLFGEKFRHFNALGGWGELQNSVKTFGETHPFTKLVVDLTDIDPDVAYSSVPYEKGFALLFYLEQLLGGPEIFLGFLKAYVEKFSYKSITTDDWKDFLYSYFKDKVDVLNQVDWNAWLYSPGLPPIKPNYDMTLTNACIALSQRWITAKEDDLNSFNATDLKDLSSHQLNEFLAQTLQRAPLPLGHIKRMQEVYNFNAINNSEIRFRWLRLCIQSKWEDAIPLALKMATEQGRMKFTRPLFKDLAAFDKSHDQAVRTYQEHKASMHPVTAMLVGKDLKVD
Summary of the method: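 LTB4 formed from LTA4 substrate (free acid from the methyl ester) was quantified by enzyme immunoassay after a 30 min rt reaction. Enzyme was 10 ng Sf-9-expressed human LTA4 hydrolase, pre-incubated 10 min with compound.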

neutrophil influx = experiment: Murine arachidonic acid-induced inflammation model: neutrophil influx in ear, myeloperoxidase activity (% Inh. MPO); format: in vivo; settings: Mus musculus, female Balb/c mice, 30 mg/kg oral gavage, ear biopsy 3 h after topical arachidonic acid, number of determinations in parentheses
Method: (§1) Assay 4: Murine Arachidonic Acid-Induced Inflammation Model
(§2) LTA4H inhibitor compounds of the present invention were dissolved in 20% cyclodextran/H2O at a concentration of 3 mg/mL. The solutions were administered by oral gavage to female Balb/c mice weighing approximately 20 grams each (0.2 mL per mouse, 30 mg of LTA4H inhibitor compound per kg). Sixty minutes after being administered an LTA4 inhibitor, each mouse received topical application of 20 μL of arachidonic acid (100 mg/mL in acetone) to the left ear and 20 μL of acetone only to the right ear. After 3 h, the mice were sacrificed, blood was withdrawn in heparinized syringes, and 8 mm ear biopsies were taken. Ear biopsies were weighed to determine edema and then frozen at −80° C. until needed for determination of neutrophil influx.
Neutrophil influx was quantified by measuring the activity of myeloperoxidase (MPO), a neutrophil-specific enzyme. The ear biopsies were homogenized in 0.5 mL extraction buffer (0.3 M sucrose, 0.22% (w/v) hexadecyl trimethyl ammonium bromide (CTAB), and 2.5 mM citrate prepared from 0.5 M citrate stock solution (pH 5.0)), in a Fast-Prep-24 (MP™) (40 seconds at 6 mps). Debris was removed by centrifugation at 14000×g for 10 min. Aliquots of 10 μL of the resulting supernatant were added to wells of a microtiter plate, along with 90-μL aliquots of dilution buffer (10 mM citrate, 0.22% CTAB), followed by addition of 20 μL TMB liquid substrate system (Sigma Chemical Co.) to each sample well. The microtiter plate contents were held at room temperature until the sample with the highest concentration of MPO reached an absorbance value of 0.4 at 650 nm. The reaction was stopped by addition of 50 μL 1 M H2SO4 to each sample well, and the myeloperoxidase activity in each sample was determined from the absorbance at 405 nm. The background value from the right ear, treated only with acetone, was subtracted from that for the left ear, treated with arachidonic acid in acetone, for each animal. The percent inhibition of neutrophil influx (% Inh. MPO) by compounds of the invention was determined by comparison to animals treated identically, except that the solution administered by oral gavage was devoid of inhibitor compound.
(§3) The number of determinations is indicated in parentheses following each value

[4] = system: ex vivo stimulated LTB4 production; experiment: Murine arachidonic acid-induced inflammation model: ex vivo stimulated LTB4 production (% Inh. LTB4); settings: Mus musculus; female Balb/c mice, 30 mg/kg oral gavage; blood taken 3 h after arachidonic acid, ex vivo A23187 stimulation; number of determinations in parentheses
Method: as §1, §2
One hundred-microliter aliquots of heparinized blood were added to wells of a microtiter plate, along with equal volumes of RPMI-1640 medium, and calcium ionophore A23187 was added to each sample well (final concentration=[…]). The microtiter plate contents were incubated for 30 min at 37° C. in a humidified incubator. The reaction was terminated by centrifugation (833×g, 10 min at 4° C.). Supernatants were analyzed for LTB4 by a commercially available enzyme-linked immunoassay (Cayman Chemical Co.) in accordance with the manufacturer's instructions. The percent inhibition of ex vivo stimulated LTB4 production (% Inh. LTB4) was determined by comparison to animals treated identically except that the solution administered by oral gavage was devoid of inhibitor compound.
as §3

[5] = system: LTB4 production by calcium ionophore-stimulated human blood; experiment: LTB4 production by calcium ionophore-stimulated human blood for LTA4H inhibitor activity; format: cell-based; settings: human blood diluted 1:1, calcium ionophore A23187, LTB4 by immunoassay; n in parentheses; read-out: IC50
Method: Assay 3: LTB4 Production by Calcium Ionophore-Stimulated Human Blood for LTA4H Inhibitor Activity
Human blood was collected from healthy donors in heparin-containing syringes. The blood was diluted 1:1 with RPMI-1640 medium, and 200-μL aliquots of the diluted blood were added to wells of a 96-well microtiter plate. LTA4H inhibitor test compounds were prepared at different concentrations in RPMI-1640 medium containing 1% DMSO, and 20 μL of each test solution was added to a well containing diluted whole blood (final DMSO concentration of 0.1%). After the microtiter plate contents were incubated for 15 min at 37° C. in a humidified incubator, calcium ionophore A23187 (Sigma Chemical Co., St. Louis, Mo.) was added to each sample well (final concentration=7 μg/mL). The incubation was continued under the same conditions for an additional 30 min to allow LTB4 formation. The reaction was terminated by centrifugation (833×g, 10 min at 4° C.), and supernatants were analyzed for LTB4 by a commercially available enzyme-linked immunoassay (Cayman Chemical Co.) according to the manufacturer's instructions. Positive controls, under essentially identical conditions but without addition of an inhibitor compound, and negative unstimulated controls, containing all assay components except calcium ionophore, were routinely run in each experiment. IC50 values for compounds tested in this assay were determined by nonlinear regression of the activity data at different compound concentrations using Graphpad Prism 4.0, one site binding competition, and are presented in Table 3. The number of determinations made is indicated in parentheses following each value.

[6] = system: ionophore-induced LTB4 production; settings: oral administration; cited from earlier work
[7] = system: ionophore-induced LTB4 production; settings: oral administration; cited from earlier work; remark: listed apart in the source
colitis symptoms = settings: eight weeks of treatment, cotton top tamarins; cited from earlier work

| SMILES | IC50 [2] [nM] | IC50 [3] [nM] | IC50 [5] [nM] | airway hyperresponsiveness induced by multiple antigen challenges [1] | inhibition in vivo at 30 mg/kg (neutrophil influx) [%] | inhibition at 30 mg/kg [4] [%] | inhibition of ionophore-induced LTB4 production in mouse blood ex vivo [6] | inhibition of ionophore-induced LTB4 production in rat peritoneum in vivo [7] | colitis symptoms (colitis symptoms) |
| --- | --- | --- | --- | --- | --- | --- | --- | --- | --- |
| O=C(O)C1(c2ccc3c(c2)OC[C@H](Cc2ccc(-c4ccccc4)cc2)[C@H]3O)CCCC1 [CP-105,696] |  |  |  | reduced airway hyperresponsiveness |  |  |  |  |  |
| CC(=O)N1C[C@@H]2C[C@H]1CN2Cc1ccc(Oc2nc3ncccc3s2)cc1 [Example 127, 1-{(1S,4S)-5-[4-([1,3]Thiazolo[4,5-b]pyridin-2-yloxy)benzyl]-2,5-diazabicyclo[2.2.1]hept-2-yl}ethanone] | 7.5 | 5 |  |  | 87.6 | 91.5 |  |  |  |
| c1cnc2nc(Oc3ccc(CN4CCC(N5CCOCC5)CC4)cc3)sc2c1 [Example 257, 2-{4-[(4-Morpholin-4-ylpiperidin-1-yl)methyl]phenoxy}[1,3]thiazolo[4,5-b]pyridine] | 97 | 29 |  |  | 70.5 | 86 |  |  |  |
| CN(C)CCC1CCCCN1Cc1ccc(Oc2nc3ncccc3s2)cc1 (stereo not drawn) [Example 258, N,N-Dimethyl-2-{1-[4-([1,3]thiazolo[4,5-b]pyridin-2-yloxy)benzyl]piperidin-2-yl}ethanamine] | 47 | 2 |  |  | 13.8 | 75 |  |  |  |
| CC(=O)N[C@H]1C[C@H]2CC[C@@H](C1)N2Cc1ccc(Oc2nc3ncc(Cl)cc3s2)cc1 [Example 287, meso-endo-N-[8-{4-[(6-Chloro[1,3]thiazolo[4,5-b]pyridin-2-yl)oxy]benzyl}-8-azabicyclo[3.2.1]oct-3-yl]acetamide] | 110 | 3 |  |  | 86.7 | 89.8 |  |  |  |
| CC(=O)N[C@H]1C[C@H]2CC[C@@H](C1)N2Cc1ccc(Oc2nc3ncc(F)cc3s2)cc1 [Example 288] | 104 | 15 |  |  | 94.6 | 61.7 |  |  |  |
| CN(CCCOc1ccc(Cc2ccccc2)cc1)CCC(=O)O.Cl [SC57461] |  |  |  |  |  |  | caused inhibition | caused inhibition | significantly improved |

More lines, main results first:

| IC50 [2] [nM] | IC50 [3] [nM] | IC50 [5] [nM] | SMILES | airway hyperresponsiveness induced by multiple antigen challenges [1] | inhibition in vivo at 30 mg/kg (neutrophil influx) [%] | inhibition at 30 mg/kg [4] [%] | inhibition of ionophore-induced LTB4 production in mouse blood ex vivo [6] | inhibition of ionophore-induced LTB4 production in rat peritoneum in vivo [7] | colitis symptoms (colitis symptoms) |
| --- | --- | --- | --- | --- | --- | --- | --- | --- | --- |
| 77 | 3 |  | O=C1C[C@@H](O)CN1C1CCN(Cc2ccc(Oc3nc4ncccc4s3)cc2)CC1 [Example 269, (4R)-4-Hydroxy-1-{1-[4-([1,3]thiazolo[4,5-b]pyridin-2-yloxy)benzyl]piperidin-4-yl}pyrrolidin-2-one] |  | 90.6 | 84.4 |  |  |  |
| 120 | 10 |  | O=C1C[C@@H](O)CN1C1CCN(CCOc2ccc(Oc3nc4ncccc4s3)cc2)CC1 [Example 270, (4R)-4-Hydroxy-1-(1-{2-[4-([1,3]thiazolo[4,5-b]pyridin-2-yloxy)phenoxy]ethyl}piperidin-4-yl)pyrrolidin-2-one] |  | 60.6 | 75.9 |  |  |  |
| 10 | 3 |  | CC(=O)N1CC2CN(Cc3ccc(Oc4nc5ncccc5s4)cc3)CC2C1 (stereo not drawn) [Example 276, 2-{4-[(5-Acetylhexahydropyrrolo[3,4-c]pyrrol-2(1H)-yl)methyl]phenoxy}[1,3]thiazolo[4,5-b]pyridine] |  | 94.9 | 57.4 |  |  |  |
| 155 | 66 |  | Cc1ccnc2nc(Oc3ccc(CN4CCC(C(N)=O)CC4)cc3)sc12 [Example 282, 1-{4-[(7-Methyl[1,3]thiazolo[4,5-b]pyridin-2-yl)oxy]benzyl}piperidine-4-carboxamide] |  | 61.1 | 62.8 |  |  |  |
| 300 | 94 |  | NC(=O)C1CCN(Cc2ccc(Oc3nc4nccnc4s3)cc2)CC1 [Example 285, 1-[4-([1,3]Thiazolo[4,5-b]pyrazin-2-yloxy)benzyl]piperidine-4-carboxamide] |  | 12.3 | 19.7 |  |  |  |
| 5 | 6 |  | CC(=O)N1C[C@@H]2CC[C@H]1CN2Cc1ccc(Oc2nc3ncccc3s2)cc1 [Example 290, 2-(4-{[(1S,4S)-5-Acetyl-2,5-diazabicyclo[2.2.2]oct-2-yl]methyl}phenoxy)[1,3]thiazolo[4,5-b]pyridine] |  | 86.9 | 82.9 |  |  |  |
| 29 | 3 | 10 | NC(=O)N1C[C@@H]2CC[C@H]1CN2Cc1ccc(Oc2nc3ncccc3s2)cc1 [Example 293, (1S,4S)-5-[4-([1,3]Thiazolo[4,5-b]pyridin-2-yloxy)benzyl]-2,5-diazabicyclo[2.2.2]octane-2-carboxamide formate] |  |  |  |  |  |  |
